Structures can show the parent of a compound that is named as a salt.
What was measured:
[1] = Example 1: multiple-dose randomized 3-way crossover PK study of two IV tramadol regimens vs 100 mg oral q6h; details: human, plasma, plasma
Description: A fitted curve was obtained because the second oral peak was not measured in the study. For the modeling portion of the analysis, a validated Phoenix® WinNonlin® program version 6.4 (Certara) was used for PK analysis, simulation, graphics, tables and statistical calculations. […] For purposes of nonlinear regression, the data were weighted as 1/observed. Predicted concentration-time data were calculated based on the individual fitted PK parameters.

mice and rats = details: cited from earlier work
[2] = iv, 50 mg, plasma concentration, Mean, 50 mg IV Dose (h 0, 2, 4, then q4h to h 44), Time […]

For COc1cccc([C@]2(O)CCCC[C@H]2CN(C)C)c1 (racemic) [Tramadol, (±)cis-2-[(dimethylamino)methyl]-1-(3-methoxyphenyl) cyclohexanol hydrochloride], the Cmax ([1]; iv, 50 mg, Cmax(2-4), 50 mg IV regimen (h 0, 2, 4, then q4h to h 44), mean) was 479 ng/mL, the Cmax ([1]; iv, 50 mg, Cmax(44-48), 50 mg IV regimen (h 0, 2, 4, then q4h to h 44), steady-state, mean) was 711 ng/mL and the Cmax ([1]; iv, 50 mg, Cmax, 50 mg IV regimen (h 0, 2, 4, then q4h to h 44), mean) was 736 ng/mL. The Tmax ([1]; iv, 50 mg, Tmax(0-2), 50 mg IV regimen (h 0, 2, 4, then q4h to h 44), mean) was 0.54 h, the Tmax ([1]; iv, 50 mg, Tmax(2-4), 50 mg IV regimen (h 0, 2, 4, then q4h to h 44), mean) was 2.36 h and the Tmax ([1]; iv, 50 mg, Tmax(44-48), 50 mg IV regimen (h 0, 2, 4, then q4h to h 44), mean) was 44.3 h. For the same compound, the Tmax ([1]; iv, 50 mg, Tmax, 50 mg IV regimen (h 0, 2, 4, then q4h to h 44), mean) was 30 h, the concentration at 0 h ([1]; iv, 50 mg, plasma concentration, Mean, 50 mg IV Dose (h 0, 2, 4, then q4h to h 44), Time 0.00 hr) was 0.726 ng/mL and the concentration at 0.25 h ([1]; iv, 50 mg, plasma concentration, Mean, 50 mg IV Dose (h 0, 2, 4, then q4h to h 44), Time 0.250 hr) was 253 ng/mL. The concentration at 0.5 h ([1]; iv, 50 mg, plasma concentration, Mean, 50 mg IV Dose (h 0, 2, 4, then q4h to h 44), Time 0.500 hr) was 261 ng/mL, the concentration at 0.75 h ([1]; iv, 50 mg, plasma concentration, Mean, 50 mg IV Dose (h 0, 2, 4, then q4h to h 44), Time 0.750 hr) was 243 ng/mL and the concentration at 1 h ([1]; iv, 50 mg, plasma concentration, Mean, 50 mg IV Dose (h 0, 2, 4, then q4h to h 44), Time 1.00 hr) was 231 ng/mL. It also gave a concentration at 2 h ([1]; iv, 50 mg, plasma concentration, Mean, 50 mg IV Dose (h 0, 2, 4, then q4h to h 44), Time 2.00 hr) of 188 ng/mL, a concentration at 2.5 h ([1]; iv, 50 mg, plasma concentration, Mean, 50 mg IV Dose (h 0, 2, 4, then q4h to h 44), Time 2.50 hr) of 442 ng/mL and a concentration at 4 h ([1]; iv, 50 mg, plasma concentration, Mean, 50 mg IV Dose (h 0, 2, 4, then q4h to h 44), Time 4.00 hr) of 335 ng/mL. For the same compound, the concentration at 4.25 h ([1]; iv, 50 mg, plasma concentration, Mean, 50 mg IV Dose (h 0, 2, 4, then q4h to h 44), Time 4.25 hr) was 662 ng/mL, the concentration at 4.5 h ([1]; iv, 50 mg, plasma concentration, Mean, 50 mg IV Dose (h 0, 2, 4, then q4h to h 44), Time 4.50 hr) was 592 ng/mL and the concentration at 5 h ([1]; iv, 50 mg, plasma concentration, Mean, 50 mg IV Dose (h 0, 2, 4, then q4h to h 44), Time 5.00 hr) was 527 ng/mL. The concentration at 6 h ([1]; iv, 50 mg, plasma concentration, Mean, 50 mg IV Dose (h 0, 2, 4, then q4h to h 44), Time 6.00 hr) was 433 ng/mL, the concentration at 8 h ([1]; iv, 50 mg, plasma concentration, Mean, 50 mg IV Dose (h 0, 2, 4, then q4h to h 44), Time 8.00 hr) was 346 ng/mL and the concentration at 12 h ([1]; iv, 50 mg, plasma concentration, Mean, 50 mg IV Dose (h 0, 2, 4, then q4h to h 44), Time 12.0 hr) was 353 ng/mL. For the same compound, the concentration at 20 h ([1]; iv, 50 mg, plasma concentration, Mean, 50 mg IV Dose (h 0, 2, 4, then q4h to h 44), Time 20.0 hr) was 419 ng/mL, the concentration at 32 h ([1]; iv, 50 mg, plasma concentration, Mean, 50 mg IV Dose (h 0, 2, 4, then q4h to h 44), Time 32.0 hr) was 422 ng/mL and the concentration at 40 h ([1]; iv, 50 mg, plasma concentration, Mean, 50 mg IV Dose (h 0, 2, 4, then q4h to h 44), Time 40.0 hr) was 424 ng/mL. For the same compound, the concentration at 44 h ([1]; iv, 50 mg, plasma concentration, Mean, 50 mg IV Dose (h 0, 2, 4, then q4h to h 44), Time 44.0 hr) was 424 ng/mL, the concentration at 44.3 h ([1]; iv, 50 mg, plasma concentration, Mean, 50 mg IV Dose (h 0, 2, 4, then q4h to h 44), Time 44.3 hr) was 697 ng/mL and the concentration at 44.5 h ([1]; iv, 50 mg, plasma concentration, Mean, 50 mg IV Dose (h 0, 2, 4, then q4h to h 44), Time 44.5 hr) was 655 ng/mL. The concentration at 44.8 h ([1]; iv, 50 mg, plasma concentration, Mean, 50 mg IV Dose (h 0, 2, 4, then q4h to h 44), Time 44.8 hr) was 645 ng/mL, the concentration at 45 h ([1]; iv, 50 mg, plasma concentration, Mean, 50 mg IV Dose (h 0, 2, 4, then q4h to h 44), Time 45.0 hr) was 610 ng/mL and the concentration at 45.5 h ([1]; iv, 50 mg, plasma concentration, Mean, 50 mg IV Dose (h 0, 2, 4, then q4h to h 44), Time 45.5 hr) was 553 ng/mL. It also gave a concentration at 46 h ([1]; iv, 50 mg, plasma concentration, Mean, 50 mg IV Dose (h 0, 2, 4, then q4h to h 44), Time 46.0 hr) of 528 ng/mL, a concentration at 47 h ([1]; iv, 50 mg, plasma concentration, Mean, 50 mg IV Dose (h 0, 2, 4, then q4h to h 44), Time 47.0 hr) of 490 ng/mL and a concentration at 16 h [1, 2] of 388 ng/mL. It also gave a concentration at 24 h [1, 2] of 413 ng/mL, a concentration at 48 h [1, 2] of 434 ng/mL and an AUC(0-t) ([1]; iv, 75 mg, AUC0-24, 75 mg IV regimen (h 0, 3, 6, then q6h to h 42), mean) of 9930 ng·h/mL. For the same compound, the AUC(0-t) ([1]; iv, 75 mg, AUC0-48, 75 mg IV regimen (h 0, 3, 6, then q6h to h 42), mean) was 19300 ng·h/mL, the AUC ([1]; iv, 75 mg, AUC24-48, 75 mg IV regimen (h 0, 3, 6, then q6h to h 42), mean) was 9930 ng·h/mL and the AUC ([1]; iv, 75 mg, AUCtau 1, 75 mg IV regimen (h 0, 3, 6, then q6h to h 42), first dosing interval, mean) was 1250 ng·h/mL. The AUC ([1]; iv, 75 mg, AUCtau n, 75 mg IV regimen (h 0, 3, 6, then q6h to h 42), last dosing interval, mean) was 3040 ng·h/mL, the concentration at 3 h ([1]; iv, 75 mg, C3, 75 mg IV regimen (h 0, 3, 6, then q6h to h 42), mean) was 237 ng/mL and the concentration at 48 h ([1]; iv, 75 mg, C48 (T48), 75 mg IV regimen (h 0, 3, 6, then q6h to h 42), mean) was 354 ng/mL. It also gave a concentration at 1 h ([1]; iv, 75 mg, C1 h, 75 mg IV regimen (h 0, 3, 6, then q6h to h 42), mean) of 361 ng/mL, a Cmax ([1]; iv, 75 mg, Cmax(0-3), 75 mg IV regimen (h 0, 3, 6, then q6h to h 42), first dose, mean) of 484 ng/mL and a Cmax ([1]; iv, 75 mg, Cmax(3-6), 75 mg IV regimen (h 0, 3, 6, then q6h to h 42), mean) of 756 ng/mL. For the same compound, the Cmax ([1]; iv, 75 mg, Cmax(42-48), 75 mg IV regimen (h 0, 3, 6, then q6h to h 42), steady-state, mean) was 827 ng/mL, the Cmax ([1]; iv, 75 mg, Cmax, 75 mg IV regimen (h 0, 3, 6, then q6h to h 42), mean) was 932 ng/mL and the Tmax ([1]; iv, 75 mg, Tmax(0-3), 75 mg IV regimen (h 0, 3, 6, then q6h to h 42), mean) was 0.5 h. It also gave a Tmax ([1]; iv, 75 mg, Tmax(3-6), 75 mg IV regimen (h 0, 3, 6, then q6h to h 42), mean) of 3.31 h, a Tmax ([1]; iv, 75 mg, Tmax(42-48), 75 mg IV regimen (h 0, 3, 6, then q6h to h 42), mean) of 42.4 h and a Tmax ([1]; iv, 75 mg, Tmax, 75 mg IV regimen (h 0, 3, 6, then q6h to h 42), mean) of 15.9 h. For the same compound, the AUC(0-t) ([1]; po, 100 mg, AUC0-24, 100 mg oral q6h to h 42, mean) was 7490 ng·h/mL, the AUC(0-t) ([1]; po, 100 mg, AUC0-48, 100 mg oral q6h to h 42, mean) was 19100 ng·h/mL and the AUC ([1]; po, 100 mg, AUC24-48, 100 mg oral q6h to h 42, mean) was 11600 ng·h/mL. It also gave an AUC ([1]; po, 100 mg, AUCtau 1, 100 mg oral q6h to h 42, first dosing interval, mean) of 1490 ng·h/mL, an AUC ([1]; po, 100 mg, AUCtau n, 100 mg oral q6h to h 42, last dosing interval, mean) of 3480 ng·h/mL and a concentration at 6 h ([1]; po, 100 mg, C6, 100 mg oral q6h to h 42, mean) of 197 ng/mL. For the same compound, the concentration at 48 h ([1]; po, 100 mg, C48 (T48), 100 mg oral q6h to h 42, mean) was 497 ng/mL, the concentration at 1 h ([1]; po, 100 mg, C1 h, 100 mg oral q6h to h 42, mean) was 278 ng/mL and the Cmax ([1]; po, 100 mg, Cmax(0-6), 100 mg oral q6h to h 42, first dose, mean) was 377 ng/mL. The Cmax ([1]; po, 100 mg, Cmax(42-48), 100 mg oral q6h to h 42, steady-state, mean) was 701 ng/mL, the Cmax ([1]; po, 100 mg, Cmax, 100 mg oral q6h to h 42, mean) was 701 ng/mL and the Tmax ([1]; po, 100 mg, Tmax(0-6), 100 mg oral q6h to h 42, mean) was 1.54 h. For the same compound, the Tmax ([1]; po, 100 mg, Tmax(42-48), 100 mg oral q6h to h 42, mean) was 44 h, the Tmax ([1]; po, 100 mg, Tmax, 100 mg oral q6h to h 42, mean) was 44 h and the carcinogenic potential (mice and rats) was “no evidence of carcinogenic potential”.

From patent publication US10537521B2 (priority 2016, dated 2020)
